The target of data set [1] is T1, rat cortex histamine H1 receptor (Rattus norvegicus, UniProt P31390).
T1 construct: the samples containing 0.5 mg of cortex membrane protein; from tissue; host or cells: cerebral cortex membranes of male Sprague-Dawley rats
The data set can be described thus: Affinity towards the histamine H1 receptor ([3H]mepyramine competitive binding). The conditions noted are these: cologarithm of Ki, mean ± deviation (n=2); [3H]mepyramine 4.5×10^−9 mole/l, rat cortex membranes. The protocol:
Cerebral cortexes from male Sprague-Dawley rats are homogenized in 2 ml per cortex of a 20 mM Tris-HCl buffer (pH 7.4) containing 250 mM sucrose. The homogenates are centrifuged at 30,000 g for 30 minutes at 4° C. and the centrifugation pellets are resuspended in the same fresh buffer and preserved in liquid nitrogen. […] The bound [^3H]mepyramine is separated from the free radioligand by rapid filtration of the sample through a Whatman GF/C filter, previously impregnated for at least 2 hours with a 0.1% solution of polyethyleneimine, in order to reduce the possibility of non-specific binding of the radioligand with other proteins. […] The radioactivity thereof is then measured using a β particle Tri-carb 1090 scintillation counter (Camberra-Packard, Belgium). Non-specific binding has been estimated in the presence of a 10 μM aqueous solution of cetirizine and represents 30% of the total binding. […] DE LEAN et al., Mol. Pharmacol., 21 (1982), 5-16) and their inhibition constants (Ki) are calculated by means of the CHENG and PRUSOFF equation (Y. C. CHENG and W. H. PRUSOFF, Biochem. Pharmacol., 22 (1973), 3099-3108). Table III below gives the values of pKi (cologarithm of Ki) calculated from Ki (mean value±deviation with respect to the mean (n=2)), for the compounds tested.

For data set [2], the system named is isolated guinea pig trachea. The data set can be described thus: Peripheral antihistaminic properties: inhibition of histamine-induced contraction of isolated guinea pig trachea. The conditions noted are these: mean ± standard deviation, histamine-contracted guinea pig trachea. The protocol:
Tracheas of Dunkin-Hartley guinea pigs of both sexes (weight: 250-500 g) are excised and cut into four fragments of three segments of cartilage each. These fragments are immersed in a Krebs-Heinseleit solution at 37° C. containing 10^−7 mole/l of atropine and 10^−5 mole/l of indomethacin and are stretched with a weight of 1 g. The solution is aerated with a current of oxygen containing 5% carbon dioxide. Each change in tension, is recorded with an isometric force indicator K 30 (from Hugo Sachs Elektronik) coupled to an amplifier and a Sanborn 7700 recorder (from Hewlett Packard). The preparation (i.e. trachea fragment) so obtained is allowed to stabilize for one hour during which the base line for the tension is readjusted if necessary.
After washing and stabilization, a cumulative curve showing the effects of histamine, as a function of its concentration (10^−6, 10^−5 and 10^−4 mole/l) is plotted as a control.
For the same preparation, four further cumulative curves showing the effects of histamine as a function of its concentration are then recorded at four increasing concentrations of each compound to be tested.
The compounds to be tested are incorporated in the medium five minutes before the histamine. Between each measurement, the preparations are washed at least four times with an interval of five minutes between each washing. Each compound is tested on at least 6 trachea fragments. When the last curve is plotted, additional concentrations of 3.2×10^−4 and 10^−3 mole/l of histamine are added in order to determine whether the antagonism is competitive or not.

The subject of data set [3] is mice. Kind of data set: Toxicity: lethal dose in mice after intraperitoneal injection. As to conditions: dose causing death in 2 out of 3 mice. It counts as in vivo.

T1 sequence (P31390 whole entry): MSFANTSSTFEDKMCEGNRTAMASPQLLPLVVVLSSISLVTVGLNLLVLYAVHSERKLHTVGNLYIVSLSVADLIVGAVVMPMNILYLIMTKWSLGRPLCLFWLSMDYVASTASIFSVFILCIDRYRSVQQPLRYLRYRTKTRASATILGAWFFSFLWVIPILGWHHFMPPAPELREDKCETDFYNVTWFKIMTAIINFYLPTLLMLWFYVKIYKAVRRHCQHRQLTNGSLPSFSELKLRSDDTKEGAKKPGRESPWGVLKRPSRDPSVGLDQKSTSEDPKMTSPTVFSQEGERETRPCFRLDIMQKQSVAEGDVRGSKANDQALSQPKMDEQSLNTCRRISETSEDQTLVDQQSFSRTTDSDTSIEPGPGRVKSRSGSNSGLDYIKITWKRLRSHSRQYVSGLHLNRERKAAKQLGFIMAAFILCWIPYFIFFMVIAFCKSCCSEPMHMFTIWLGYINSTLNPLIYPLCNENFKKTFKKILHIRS

A word on the Ki: it is a measure of affinity in units of concentration, obtained from inhibition or displacement. Low values mean a stronger hold on the target, high ones a looser hold on the target. For orientation: pA2 means a measure of antagonist potency on a negative log scale. Read a high pA2 as a more potent antagonist. Regarding `NC(=O)COCCN1CCN(C(c2ccccc2)c2ccc(Cl)cc2)CC1` (single isomer, unassigned; (+)) [Compound L, (+)-2-[2-[4-[(4-chlorophenyl)phenylmethyl]-1-piperazinyl]ethoxy]acetamide], the affinity in data set [1], expressed as Ki, was 0.158 µM. Further, the pA2 in data set [2] (competitive inhibition) is on record as 6.4 ± 0.2. The compound further yielded a Lethal dose in data set [3] of 0.001 mol/kg.

The compound `NC(=O)COCCN1CCN(C(c2ccccc2)c2ccc(Cl)cc2)CC1` (single isomer, unassigned; (-)) [K, (−)-2-[2-[4-[(4-chlorophenyl)phenylmethyl]-1-piperazinyl]ethoxy]acetamide] gave a Ki in data set [1] of 0.00251 µM. Besides, in data set [2] (non-competitive inhibition), the “pD2′” value was determined as 6.3 ± 0.2. Further, the Lethal dose in data set [3] came to 0.0003 mol/kg.

The values above are taken from US6436942B1, “Enantiomers of 1[(4-chloro-phenyl) phenylmethyl]-4-[(4-methylphenyl) sulfony]piperazine” (UCB, S.A., priority 1993, dated 2002).
